{"source": "ChEMBL document CHEMBL3137356", "about": "“MMV Box Cryptosporidium parvum screening set”"}
{"tested_on": "Cryptosporidium parvum", "assay": "MMV: Cryptosporidium parvum oocysts (Iowa Strain) were prepared for use by treatment with 10 mM HCl (37 degrees C, 10 min) followed by 2 mM sodium taurocholate in phosphate-buffered saline (PBS) with Ca2+ and Mg2+ (16 degrees C, 10 min) in order to stimulate excystation. The high-throughput screen was carried out by inoculating >90% confluent human ileocecal adenocarcinoma (HCT-8) cells (ATCC) with ~5.5 x 10^3 primed oocysts per well. Experimental compounds or DMSO (vehicle) were added three hours after infection, and cells were incubated for 48 hours.", "assay_type": "functional", "units": {"Inhibition": "%"}}
{"smiles": "COc1ccc2c(c1)C1(Nc3ccccc3-c3nc4ccccc4n31)C(=O)N2", "note": "(stereo not given)", "Inhibition": -27.19}
{"smiles": "COc1cccc(Cn2c(Oc3ccccc3)nc3c2c(=O)n(C)c(=O)n3C)c1", "Inhibition": -39.36}
{"smiles": "CCOc1c(Cl)cc(CNCC(O)c2ccccc2)cc1OC", "note": "(stereo not given)", "Inhibition": -11.22}
{"smiles": "OC(CNCC1CCCO1)Cn1c2ccc(Cl)cc2c2cc(Cl)ccc21", "note": "(stereo not given)", "Inhibition": -33.95}
{"smiles": "COc1ccc2nc(C)cc(Nc3ccccc3O)c2c1", "Inhibition": -4.901}
{"smiles": "CCn1nc(-c2ccc(C(=O)OC)cc2)nc2c(=O)n(C)c(=O)nc1-2", "Inhibition": -16.23}
{"smiles": "CC1(c2ccccc2)Nc2ccccc2-c2nc3ccccc3n21", "note": "(stereo not given)", "Inhibition": 30.85}
{"smiles": "COc1cccc(C2(C)Nc3ccccc3-c3nc4ccccc4n32)c1", "note": "(stereo not given)", "Inhibition": -28.25}
{"smiles": "CC(C)CNC(=O)c1c(N)n(CCc2ccccc2F)c2nc3ccccc3nc12", "Inhibition": -31.92}
{"smiles": "CC(C)(C)CC(C)(C)NCC(O)COc1ccc(Cl)cc1Cl", "note": "(stereo not given)", "Inhibition": 15.77}
{"smiles": "O=C(Nc1ccc(Br)cc1)Nc1cccc(Cl)c1", "Inhibition": -51.26}
{"smiles": "CN(C)CCNc1cc(-c2ccccc2)nc2ccccc12", "Inhibition": -2.54}
{"smiles": "COc1ccc2nc(C)cc(Nc3ccc(Cl)cc3)c2c1", "Inhibition": -41.72}
{"smiles": "CCC(O)c1ccc(Br)cc1NC(=O)c1cccc(Cl)c1", "note": "(stereo not given)", "Inhibition": 15.79}
{"smiles": "Cc1sc2ncnc(Sc3nc4ccccc4[nH]3)c2c1C", "Inhibition": 20.44}
{"smiles": "CC(=O)Nc1nnc(SCc2c(C)cc(C(C)(C)C)cc2C)s1", "Inhibition": -2.709}
{"smiles": "O=C(Nc1ccc(CN2CCOCC2)cc1)c1ccc(-c2cc(Cl)ccc2Cl)o1", "Inhibition": 9.568}
{"smiles": "Cc1cc(Nc2cccc(F)c2)nc(NCc2ccccc2)n1", "Inhibition": -34.09}
{"smiles": "COCCn1c(C)nc2ccccc2c1=O", "Inhibition": -17.93}
{"smiles": "O=C(Nc1cccc(-c2nc3ccccc3[nH]2)c1)c1cccc(NC(=O)c2ccco2)c1", "Inhibition": 23.53}
{"smiles": "O=C(NC1CCN(Cc2ccccc2)CC1)c1cc(-c2cccnc2)nc2ccc(Cl)cc12", "Inhibition": -40.68}
{"smiles": "CCN(Cc1ccccc1)C1CCN(Cc2cc(Br)ccc2O)CC1.O=C(O)C(=O)O", "Inhibition": -6.655}
{"smiles": "COc1ccc(-c2nonc2NC(=O)c2cccc(Cl)c2)cc1OC", "Inhibition": 23.52}
{"smiles": "Cc1cc(NC(=O)c2ccc(-c3ccccc3)cc2)no1", "Inhibition": 13.55}
{"smiles": "CCOc1cc2c(cc1OCC)C(c1cc(C)c(O)c(C)c1)NCC2.Cl", "note": "(stereo not given)", "Inhibition": 13.77}
{"smiles": "O=C1CC(O)(C(F)(F)C(F)(F)F)Oc2ccccc21", "note": "(stereo not given)", "Inhibition": 26.51}
{"smiles": "COc1cc(SC)ccc1C(=O)N1CCCC(C)C1", "note": "(stereo not given)", "Inhibition": -12.18}
{"smiles": "CC(C)c1ccc(CNCC(O)c2ccccc2)cc1.Cl", "note": "(stereo not given)", "Inhibition": 13.18}
{"smiles": "Cc1ccc(NC(=O)Nc2cccc(Cl)c2)cc1F", "Inhibition": -0.4391}
{"smiles": "O=C(O)C(=O)O.Oc1ccc(Br)cc1CN1CCN(Cc2cccc(F)c2)CC1", "Inhibition": -34.58}
{"smiles": "O=c1nc(C=Cc2ccc(Cl)cc2)oc2ccccc12", "Inhibition": 84.37}
{"smiles": "O=C(NCc1ccco1)C1CCN(S(=O)(=O)c2ccc(Br)cc2)CC1", "Inhibition": 29.65}
{"smiles": "CN(C)c1ccc(N2C(N)=NC(N)=NC2(C)C)cc1", "Inhibition": -33.57}
{"smiles": "COc1ccc(Nc2nc(NCc3ccccc3)c3ccccc3n2)cc1", "Inhibition": 49.98}
{"smiles": "COc1cc2c(cc1OC)C1=NNC(=O)C1=NC(C)(C)C2", "Inhibition": -25.43}
{"smiles": "Oc1c(CN2CCN(c3ccccc3F)CC2)cc(Br)c2cccnc12", "Inhibition": 61.72}
{"smiles": "Oc1c2c(nc3cc(-c4ccccc4)nn13)CCCC2", "Inhibition": 37.02}
{"smiles": "CCCCc1c(C)nc2c(OC)cccc2c1O", "Inhibition": -24.29}
{"smiles": "CCOC(=O)C1CCN(C(=O)CN2C(=O)c3ccccc3C2c2c[nH]c3ccccc23)CC1", "note": "(stereo not given)", "Inhibition": 23.12}
{"smiles": "CCOc1ccc(CCNC(=O)c2cccs2)cc1OCC", "Inhibition": 10.2}
{"smiles": "Cc1cc(N2CCN(C3CCCC3)CC2)n2c(nc3ccccc32)c1C#N", "Inhibition": -41.28}
{"smiles": "CCCCOc1ccc(C(=O)Nc2cc(C)on2)cc1", "Inhibition": -8.82}
{"smiles": "CCc1ccc(Nc2cc(C)nc3nc(C)nn23)cc1", "Inhibition": -3.889}
{"smiles": "Br.CCN(CC)S(=O)(=O)c1ccc(-c2csc(Nc3ccc(C)c(C)c3)n2)cc1", "Inhibition": -28.35}
{"smiles": "Cc1c(C)n(CC(O)CNC2CCCCC2C)c2ccccc12", "note": "(stereo not given)", "Inhibition": -20.79}
